In PubChem BioAssay (NCI):
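Each compound was tested at five concentrations against cells in 96-well plates for 48 hours. TGI is the concentration that stops growth completely.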

Legend:
Experiment in all cases: NCI anticancer screen, dose series, 48 h
[1] = system: KM12 colon
[2] = system: CAKI-1 renal
[3] = system: SK-OV-3 ovarian
[4] = system: M14 melanoma
[5] = system: HOP-92 NSCLC
[6] = system: SK-MEL-28 melanoma
[7] = system: HCC-2998 colon
[8] = system: A549 NSCLC
[9] = system: HCT-116 colon
[10] = system: MDA-MB-435
[11] = system: T-47D breast
[12] = system: MDA-MB-231 breast
[13] = system: UACC-62 melanoma
[14] = system: SK-MEL-5 melanoma
[15] = system: NCI-H522 lung
[16] = system: HOP-62 NSCLC
[17] = system: SW-620 colon
[18] = system: MALME-3M melanoma
[19] = system: OVCAR-4 ovarian
[20] = system: MCF7 breast
[21] = system: TK-10 renal
[22] = system: MDA-N
[23] = system: HT29 colon
[24] = system: UACC-257 melanoma
[25] = system: OVCAR-3 ovarian
[26] = system: SNB-19 CNS
[27] = system: A498 renal
[28] = system: SK-MEL-2 melanoma
[29] = system: SF-295 CNS
[30] = system: SF-539 CNS
[31] = system: MOLT-4 leukemia
[32] = system: SNB-75 CNS
[33] = system: LOX IMVI melanoma
[34] = system: RPMI-8226 leukemia
[35] = system: NCI-H226 lung
[36] = system: BT-549 breast
[37] = system: 786-0 renal
[38] = system: SN12C renal
[39] = system: K-562 leukemia
[40] = system: NCI/ADR-RES ovarian
[41] = system: OVCAR-8 ovarian
[42] = system: PC-3 prostate
[43] = system: SF-268 CNS
[44] = system: CCRF-CEM leukemia
[45] = system: NCI-H23 lung
[46] = system: DU-145 prostate
[47] = system: ACHN renal
[48] = system: EKVX NSCLC
[49] = system: HS 578T breast
[50] = system: OVCAR-5 ovarian
[51] = system: SR leukemia
[52] = system: HCT-15 colon
[53] = system: HL-60(TB) leukemia
[54] = system: UO-31 renal
[55] = system: NCI-H460 lung
[56] = system: COLO 205 colon
[57] = system: IGROV1 ovarian
[58] = system: U251 CNS

**Q.** Which TGI [1] does the source give for `N#Cc1c(-c2ccc(Cl)cc2)cc(-c2nc3ccccc3[nH]2)nc1N` here?
**A.** The TGI was 25.1 µM.

**Q.** What about the TGI [2] of the same compound?
**A.** Its TGI is 46.6 µM.

**Q.** And the TGI [3]?
**A.** The TGI was 77.4 µM.

**Q.** What about the TGI [4] of the same compound?
**A.** The TGI was 16.2 µM.

**Q.** And the TGI [5]?
**A.** Its TGI is 26.3 µM.

**Q.** And the TGI [6]?
**A.** Its TGI is 36 µM.

**Q.** And the TGI [7]?
**A.** Its TGI is 14.3 µM.

**Q.** And the TGI [8]?
**A.** The TGI was 20.9 µM.

**Q.** What about the TGI [9] of the same compound?
**A.** Its TGI is 22.5 µM.

**Q.** What about the TGI [10] of the same compound?
**A.** The TGI was 18.8 µM.

**Q.** And the TGI [11]?
**A.** Its TGI is 19.4 µM.

**Q.** What about the TGI [12] of the same compound?
**A.** The TGI was 26.8 µM.

**Q.** And the TGI [13]?
**A.** The TGI was 21.2 µM.

**Q.** And the TGI [14]?
**A.** Its TGI is 20.6 µM.

**Q.** What about the TGI [15] of the same compound?
**A.** The TGI was 35.1 µM.

**Q.** What about the TGI [16] of the same compound?
**A.** Its TGI is 38.5 µM.

**Q.** What about the TGI [17] of the same compound?
**A.** Its TGI is 42.6 µM.

**Q.** What about the TGI [18] of the same compound?
**A.** The TGI was 32.5 µM.

**Q.** And the TGI [19]?
**A.** The TGI was 36.2 µM.

**Q.** What about the TGI [20] of the same compound?
**A.** Its TGI is 20.1 µM.

**Q.** What about the TGI [21] of the same compound?
**A.** Its TGI is 27.3 µM.

**Q.** And the TGI [22]?
**A.** The TGI was 23.7 µM.

**Q.** What about the TGI [23] of the same compound?
**A.** Its TGI is 25.5 µM.

**Q.** What about the TGI [24] of the same compound?
**A.** The TGI was 18.5 µM.

**Q.** What about the TGI [25] of the same compound?
**A.** Its TGI is 41.8 µM.

**Q.** What about the TGI [26] of the same compound?
**A.** The TGI was 27.5 µM.

**Q.** What about the TGI [27] of the same compound?
**A.** Its TGI is 22.6 µM.

**Q.** And the TGI [28]?
**A.** The TGI was 25.9 µM.

**Q.** And the TGI [29]?
**A.** Its TGI is 49.1 µM.

**Q.** And the TGI [30]?
**A.** Its TGI is 31.7 µM.

**Q.** And the TGI [31]?
**A.** Its TGI is 26.8 µM.

**Q.** What about the TGI [32] of the same compound?
**A.** Its TGI is 31.2 µM.

**Q.** What about the TGI [33] of the same compound?
**A.** The TGI was 28 µM.

**Q.** What about the TGI [34] of the same compound?
**A.** Its TGI is 47.1 µM.

**Q.** What about the TGI [35] of the same compound?
**A.** The TGI was 28 µM.

**Q.** And the TGI [36]?
**A.** The TGI was 30.5 µM.

**Q.** What about the TGI [37] of the same compound?
**A.** The TGI was 23.3 µM.

**Q.** What about the TGI [38] of the same compound?
**A.** Its TGI is 27.5 µM.

**Q.** And the TGI [39]?
**A.** Its TGI is 54.9 µM.

**Q.** What about the TGI [40] of the same compound?
**A.** Its TGI is 48.4 µM.

**Q.** What about the TGI [41] of the same compound?
**A.** Its TGI is 49.5 µM.

**Q.** What about the TGI [42] of the same compound?
**A.** The TGI was 32.6 µM.

**Q.** And the TGI [43]?
**A.** The TGI was 34.6 µM.

**Q.** And the TGI [44]?
**A.** The TGI was 45.3 µM.

**Q.** What about the TGI [45] of the same compound?
**A.** Its TGI is 35.3 µM.

**Q.** What about the TGI [46] of the same compound?
**A.** Its TGI is 20.2 µM.

**Q.** What about the TGI [47] of the same compound?
**A.** The TGI was 45.2 µM.

**Q.** And the TGI [48]?
**A.** Its TGI is 46.1 µM.

**Q.** And the TGI [49]?
**A.** The TGI was 73.3 µM.

**Q.** And the TGI [50]?
**A.** Its TGI is 43.4 µM.

**Q.** What about the TGI [51] of the same compound?
**A.** Its TGI is 35.1 µM.

**Q.** What about the TGI [52] of the same compound?
**A.** The TGI was 36.3 µM.

**Q.** What about the TGI [53] of the same compound?
**A.** Its TGI is 58.7 µM.

**Q.** What about the TGI [54] of the same compound?
**A.** The TGI was 21.9 µM.

**Q.** What about the TGI [55] of the same compound?
**A.** Its TGI is 21.6 µM.

**Q.** And the TGI [56]?
**A.** The TGI was 20.1 µM.

**Q.** What about the TGI [57] of the same compound?
**A.** The TGI was 22.2 µM.

**Q.** What does the source list for `O=c1c(-c2ccc(O)cc2)coc2cc(O)cc(O)c12`?
**A.** TGI [1]: > 100 µM; TGI [4]: > 100 µM; TGI [5]: > 100 µM; TGI [6]: > 100 µM; TGI [7]: > 100 µM; TGI [8]: > 100 µM; TGI [10]: > 100 µM; TGI [11]: > 100 µM; TGI [13]: > 100 µM; TGI [14]: > 100 µM; TGI [15]: > 100 µM; TGI [17]: > 100 µM; TGI [18]: > 100 µM; TGI [19]: > 100 µM; TGI [20]: > 100 µM; TGI [21]: > 100 µM; TGI [22]: > 100 µM; TGI [23]: > 100 µM; TGI [26]: > 100 µM; TGI [29]: > 100 µM; TGI [30]: > 100 µM; TGI [31]: > 100 µM; TGI [34]: > 100 µM; TGI [35]: > 100 µM; TGI [36]: > 100 µM; TGI [37]: > 100 µM; TGI [38]: > 100 µM; TGI [39]: > 100 µM; TGI [40]: > 100 µM; TGI [41]: > 100 µM; TGI [42]: > 100 µM; TGI [43]: > 100 µM; TGI [45]: > 100 µM; TGI [46]: > 100 µM; TGI [47]: > 100 µM; TGI [48]: > 100 µM; TGI [49]: > 100 µM; TGI [50]: > 100 µM; TGI [51]: > 100 µM; TGI [58]: > 100 µM; TGI [52]: > 100 µM; TGI [53]: > 100 µM; TGI [54]: > 100 µM; TGI [55]: > 100 µM; TGI [56]: > 100 µM; TGI [57]: > 100 µM
